This data set in a line: Human HepG2 cell viability assay in 384 well format. The following applies: HepG2 cells, read-out: Inhibition. The arrangement: dose 125 nL, time 70.5 hour; cytotoxicity at 70.5 h: concentration not given beside the values. Format: toxicity, cell-based.

As for `CNS(=O)(=O)CCCN1CCCN(Cc2ccccc2)CC1C` (centres undefined), the cytotoxicity at 70.5 h worked out at 14.3%. To `COC(=O)CCCNC(=O)Nc1ccccc1OC` belongs 12.5%. With `Cc1ccc(C)c(CS(=O)(=O)CC(=O)NC(C)c2ccc(F)cc2F)c1` (centres undefined) the figure was 8.01%; with `Cc1ccc(C)c(CS(=O)(=O)CC(=O)Nc2ccc(F)cc2F)c1`, -7.2%; with `O=C(CNC(=O)c1cnc2ccccc2c1O)NCCCn1ccnc1`, -16.5%.

Turning to `O=C(CCCNC(=O)Nc1ccc(F)cc1F)Nc1cn[nH]c1`, the cytotoxicity at 70.5 h was -5.08%. To `CN(CC(=O)NC(Cc1ccccc1)C1CCCC1)S(C)(=O)=O` (centres undefined) belongs -3.31%. On to `COc1ccccc1NC(=O)NCCCC(=O)Nc1cn[nH]c1`, for which the cytotoxicity at 70.5 h is 13.3%. To `COc1cc(C(C#N)NC(=O)CC2=CCCCC2)cc(OC)c1OC` (centres undefined) belongs -5.49%; to `Cc1n[nH]cc1CNC1(c2ccc(F)cc2)CCCC1`, -7.33%; to `Cc1n[nH]cc1CNC1(Cc2ccc(Br)cc2)CCCCC1`, -1.97%.

Consider `CCn1nc(C)cc1C(=O)N1CCOc2ccc(OC)cc21`, for which the cytotoxicity at 70.5 h is -4.62%. Take `CNS(=O)(=O)c1csc(C(=O)NCc2sccc2C)c1`: the cytotoxicity at 70.5 h is -4.77%. As for `CCCc1cc(NC(=O)c2cccc(N3CCCNC3=O)c2)n[nH]1`, the cytotoxicity at 70.5 h was -6.61%. With `CNS(=O)(=O)c1csc(C(=O)N(C)Cc2ccccc2C)c1` the figure was 0.0278%; with `CC1CCN(CC(O)CNc2ccccn2)CC1` (centres undefined), -6.21%. On to `CC1CCN(CC(O)CNc2ccc(Cl)cn2)CC1` (centres undefined), for which the cytotoxicity at 70.5 h was -1.66%. With `OC(CNc1ccc(Cl)cn1)CN1CCOCC1` (centres undefined), the cytotoxicity at 70.5 h came to 2.86%.

With `COc1ccc(C(C#N)NC(=O)Cc2ccc(F)c(F)c2)c(OC)c1` (centres undefined), the cytotoxicity at 70.5 h is -3.6%. With `CCn1nc(C(C)C)cc1C(=O)N1CCOc2ccc(OC)cc21` the figure was -5.2%; with `CC(C)Cc1nc(CS(=O)(=O)c2ccccc2)no1`, -2.63%. With `Cc1nc(CN2CCC23CCN(Cc2ccoc2)CC3)cs1` the figure was -6.82%; with `Cc1nc(CN2CCC23CCN(Cc2ccco2)CC3)cs1`, -5.68%; with `Cc1nc(CN2CCC3(C2)CN(Cc2ccco2)C3)cs1`, -3.68%.

As to `Cc1ccc(CNCC2Cn3nncc3CO2)s1` (centres undefined), the cytotoxicity at 70.5 h is -4.83%.

For `COCC(=O)N1CC(C(=O)NCC2CC2)C2(CCOCC2)C1` (centres undefined), the cytotoxicity at 70.5 h is -3.19%. To `Cc1nnc([C@@]23CCO[C@@H]2CCN(S(=O)(=O)c2ccccc2)C3)o1` belongs -7.57%.

With `O=C1CC[C@@H]2[C@@H](CCN2S(=O)(=O)C2CC2)N1CC1CC1`, the cytotoxicity at 70.5 h was 18.2%.

Consider `CCC(=O)N1CCC2(C=C(C(=O)N(C)C)c3ccccc32)CC1`, for which the cytotoxicity at 70.5 h turned out to be 14%.

`CCC(=O)N1CCC2(C=C(C(=O)N3CCCC3)c3ccccc32)CC1`: the cytotoxicity at 70.5 h was 8.56%. To `COCCN1C(=O)CC[C@@H]2[C@H]1CCN2S(=O)(=O)c1cccs1` belongs 20.8%; to `Cc1noc([C@]23COC[C@H]2CN(C(=O)COC2CCCC2)C3)n1`, -5.12%. With `Cc1noc([C@]23COC[C@H]2CN(C(=O)N2CCCC2)C3)n1` the figure was -6.89%; with `CN(C)C(=O)CN1CCc2ncnc(N(C)C)c2CC1`, -6.04%. With `COCC1c2c(cnn2C)CCN1C(=O)c1cccn1C` (centres undefined) the figure was -6.36%; with `O=C(NCC1CC2(CO1)CN(Cc1cccs1)C2)C1CCC1` (centres undefined), 19.9%.

Consider `Cc1ccc(CN2Cc3nccn3CC(Cn3cccn3)C2)s1` (centres undefined), for which the cytotoxicity at 70.5 h is -4.41%. Consider `Cn1ccc(CN2CCC3(CCCN3CC3CC3)CC2)n1`, for which the cytotoxicity at 70.5 h is -6.07%. With `Cn1cc(CN2C[C@H]3CCC[C@@]3(COc3ccccn3)C2)cn1` the figure was -3.17%.

Values taken from ChEMBL document CHEMBL3507680, “University of Dundee, Gates Library screen for HepG2 cell viability”.
